This is an account of results in US6605639B1, “Ligands of nuclear receptor” (Nuclear Receptor Research, Ltd., priority 1998, dated 2003).

For experiment [1], the system named is patients suffered from noninsulin dependent diabetes (type II). Kind of experiment: Phase II clinical test. Conditions: for Fasting blood glucose level, Decrease / Serum total cholesterol level, Decrease / Fasting blood glucose level / Serum total cholesterol level: 360 mg/day; for Fasting blood glucose level / Serum total cholesterol level: n = 30, Mean ± SE; for Boredom No, number of patients / Boredom Yes, number of patients: total 15; for Neuralgia No, number of patients / Neuralgia Yes, number of patients: total 16; for Feebleness No, number of patients / Feebleness Yes, number of patients: total 25. The format is in vivo, human. How it is done:
A phase II clinical test of Compound-6 involving 30 patients suffered from noninsulin dependent diabetes (type II) was carried out. Compound-6 was administered in a daily dose of 6 mg/kg (i.e., administration of two tablets weighing 60 mg after each meal). The administration was continued for 12 weeks.
The facts clarified by this test are as follows.
The 30 patients with type II diabetes were inquired about thirsty and evaluated in 4 grades, namely, (+++) very strongly thirsty; (++) strongly thirsty; (+) thirsty; and (−) not thirsty. […] The treatment ratio amounted to 100%.

The next experiment has as its system male Wistar rats. Kind of experiment: Sterol balance and bile acid excretion in rats. The format is in vivo, rat. Conditions: 10 mg/kg oral once a day. How it is done:
Feed-origin cholesterol and neutral sterol and acidic sterol in the feces of rats, to which the compounds of the present invention had been administered, were determined to monitor sterol balance and changes in the bile acid composition in feces. […] Further, the bile was sampled with the passage of time from rats having been subjected to cholangiostomy and bile acids thereof were determined. […] Male Wistar rats weighting about 250 g were divided into groups each having 6 to 8 animals. […] […] The feces were collected on the days 6 and 10. Then sterols were extracted therefrom in a conventional manner, acidic sterols and neutral sterols were determined. On the other hand, cholesterol in the feed was also determined so as to calculate the amount of feed-origin sterol.

In the next experiment the test system is db/db mice. Kind of experiment: Long-term oral administration to hereditary obese diabetic mice (pancreas function protecting effect). The format is in vivo, mouse. The source says: It has been already supported by the results of several experiments that oral administration of the compounds of the present invention enhances peripheral insulin sensitivity and ameliorates metabolic disorders in db/db mice. It is, however, noteworthy that the compounds of the present invention exert an effect in retaining the function pancreatic synthesis of insulin over a long period, which is defective in diabetes. This effect was clearly indicated by serum insulin level and pathologic observation on pancreas of db/db mice to which Compound-14 had been administered over about 1 year. […] Moreover, Compound-14 ameliorated urinary protein throughout the experimental period. […] Namely, there arose a conversion of non insulin-dependent diabetes mellitus into insulin-dependent diabetes mellitus,analogous to human type II diabetes. Even body weight was reduced to a level similar to that of normal litter after the 40th week, the db/db mice lacking leptin receptor underwent overeating and food energy, which could not be anabolized due to the poverty of insulin, was excreted from the body in a large amount.
Since they lack hereditarily leptin […], db/db mice have no appetite control even at satiety. As a result, they suffer from hyperinsulinemia due to overeating and serious obesity, thereby undergoing the onset of diabetes. The compounds of the present invention were orally administered to db/db mice for 40 weeks (from 11 to 51 weeks after birth) (FIG. 2).
As obesity attained a maximum, insulin requirements exceeded insulin production levels. Thus, pancreatic Langerhans' islet β-cells having insulin depot granules therein were mostly degranulated and there arose insulin depot poverty. The pancreatic Langerhans' islet β-cells having been working severely to produce insulin in excess gradually fatigued. […] From 23rd week after birth, it became impossible to anabolize all of the food energy taken in excess due to the insufficient function of insulin, which induced a decrease in body weight. The food energy which could not be anabolized was excreted as urinary glucose. As a result, the urinary glucose increased with a decrease in the blood insulin level. […] Namely, there arose the conversion of noninsulin-dependent diabetes mellitus into insulin-dependent diabetes mellitus in clinical case of humans. […] However, Compound-14 has no function of restoring leptin receptor and thus exerts no effect on the process of the induction of obesity by hyperinsulinemia due to overeating.
Since pancreatic Langerhans' islet β-cells are of key importance in various aspects of diabetes, the ability of the compound of the present invention to maintain the function of these cells over a long period of time, is very important in terms of the treatment and prevention of diabetes.

Several values for one entry are separate records, joined by “and”; a condition that tells them apart may be missing. Equal values may be shown once.

For `COc1c(Cl)c(C)c(C=O)c(O)c1C/C=C(C)/C=C/[C@@]1(C)[C@H](C)CCC(=O)[C@@H]1C` [Compound-6, 4-O-methylASC], in experiment [1] (4th week), the “Fasting blood glucose level, Decrease” value turned out to be 12.37%; the “Serum total cholesterol level, Decrease” value worked out at 16.6%; the “Fasting blood glucose level” value was found to be 165 ± 4.3 mg/dL; the “Serum total cholesterol level” value amounted to 265 ± 4.4 mg/dL. Moreover, in experiment [1] (4th week), the “Boredom No, number of patients” value is 5; the “Boredom Yes, number of patients” value was determined as 10; the “Neuralgia No, number of patients” value was determined as 9; the “Neuralgia Yes, number of patients” value was found to be 7. Moreover, in experiment [1] (4th week), the “Feebleness No, number of patients” value turned out to be 10 and the “Feebleness Yes, number of patients” value was found to be 15. In experiment [1] (8th week), the “Fasting blood glucose level, Decrease” value is given as 15.45%; the “Serum total cholesterol level, Decrease” value worked out at 24.3%; the “Fasting blood glucose level” value amounted to 159 ± 2.4 mg/dL; the “Serum total cholesterol level” value worked out at 240 ± 4.4 mg/dL. For the same molecule, in experiment [1] (8th week), the “Boredom No, number of patients” value turned out to be 13; the “Boredom Yes, number of patients” value is 2; the “Neuralgia No, number of patients” value was 10; the “Neuralgia Yes, number of patients” value turned out to be 6. For the same molecule, in experiment [1] (8th week), the “Feebleness No, number of patients” value came to 19 and the “Feebleness Yes, number of patients” value was found to be 6. In experiment [1] (12th week), the “Fasting blood glucose level, Decrease” value was found to be 18.05%; the “Serum total cholesterol level, Decrease” value is given as 27.2%; the “Fasting blood glucose level” value stood at 154 ± 4.4 mg/dL; the “Serum total cholesterol level” value worked out at 231 ± 4.4 mg/dL. In experiment [1] (12th week), the “Boredom No, number of patients” value was 15; the “Boredom Yes, number of patients” value came out at 0; the “Neuralgia No, number of patients” value stood at 14; the “Neuralgia Yes, number of patients” value was determined as 2. In experiment [1] (12th week), the “Feebleness No, number of patients” value is listed as 24 and the “Feebleness Yes, number of patients” value amounted to 1. Moreover, the “thirst, treatment ratio” value in experiment [1] (30 patients, 12 weeks) is 100%. For the same molecule, in experiment [1] (compared with the data before the administration), the “glucose tolerance (50 g of glucose orally loaded, fasting)” value is “significantly ameliorated”. In addition, in experiment [1] (human, in vivo), the “blood pressure of patients with hypertension (7) or borderline hypertension (17)” value is given as “significantly lowered”; the “lowering the serum neutral fat level” value is listed as “little effect”; the “urinary glucose, urine collected for 24 hours” value is listed as “significantly reduced”. Moreover, in the experiment with male Wistar rats (Standard feed), the Serum total cholesterol stood at 65.0 ± 2.98 mg/dL, the “Sterol Excretion” value worked out at 10.81 mg/200 g wt and the Sterol balance is -2.26 mg. Besides, in the experiment with male Wistar rats (feed containing cholesterol), the Serum total cholesterol worked out at 77.0 ± 2.19 mg/dL, the “Sterol Excretion” value worked out at 275.52 mg/200 g wt and the Sterol balance result is given as “+25.93 mg”.
Turning to `CC(/C=C/[C@@]1(C)[C@H](C)CCC(=O)[C@@H]1C)=C\Cc1c(O)c(C=O)c(C)c(Cl)c1OCC(=O)O` [Compound-14, 4-O-carboxymethylASC], the “urinary glucose compared with the control group” value in the experiment on db/db mice (0.1% in feed, oral, 40 weeks (11 to 51 weeks after birth)) was “scarcely excreted into urine and 1/100”. The blood glucose level entry with db/db mice (0.1% in feed, oral, about 40 weeks after birth) is on record as “almost comparable to normal litter”. The “function of pancreatic β-cells (insulin productivity)” value in the experiment on db/db mice (long-term oral administration, about 1 year) was “completely sustained over 1 year”. In the experiment with db/db mice (throughout the experimental period), the urinary protein entry is “ameliorated”.
